Data reported in patent publication US5912352A, “Intermediates for the preparation of peptide analogues” (Novartis Finance Corporation, priority 1996, dated 1999).

Legend:
HIV-1-protease = molecular target: T1, HIV-1-protease (Human immunodeficiency virus type 1 group M subtype B, UniProt P04585); assay: Inhibition of the proteolytic activity of HIV-1-protease (icosapeptide substrate, HPLC); assay type: biochemical; details: icosapeptide RRSNQVSQNYPIVQNIQGRR 122 μM, 20 mM MES buffer pH 6.0, one hour at 37° C.; read-out: IC50 (concentration at which half the maximum inhibition of HIV-1-protease is found)
T1 construct: made in house
Procedure: In that procedure the inhibition of the action of HIV-1- protease (preparation: see S. Billich et al., J. Biol. Chem. 263 (34), 17905-17908 (1990)) is measured in the presence of the icosapeptide […] (a synthetic substrate of HIV-1-protease, prepared by peptide synthesis in accordance with known procedures (see J. Schneider et al., Cell 54, 363-368 (1988)), which contains as substrate analogue one of the cleavage sites of the gag-precursor protein (natural substrate of HIV-1-protease). That substrate and its cleavage products are analysed by high performance liquid chromatography (HPLC).
The test compound is dissolved in dimethyl sulfoxide. The enzymatic test is carried out by adding suitable dilutions of the inhibitor in 20 mM β-morpholinoethanesulfonic acid (MES) buffer pH 6.0 to the test mixture. That mixture consists of the above-mentioned icosapeptide (122 μM) in 20 mM MES buffer pH 6.0. 100 μl are used per test batch. The reaction is started by the addition of […] of HIV-1-protease solution and is stopped after one hour's incubation at 37° C. by the addition of 10 μl of 0.3M HClO4. After centrifugation of the sample at 10000×g for 5 minutes, 20 μl of the resulting supernatant are applied to a 125×4.6 mm Nucleosil® Cl8-5 μ HPLC column (reversed phase material supplied by Macherey & Nagel, Duren, FRG, based on silica gel that has been charged with C18 alkyl chains). The uncleaved icosapeptide and its cleavage products are eluted from the column by means of the following gradient: 100% eluant 1→50% eluant 1+50% eluant 2 (eluant 1:10% acetonitrile, 90% H2 O, 0.1% trifluoroacetic acid (TFA); eluant 2:75% acetonitrile, 25% H2 O, 0.08% TFA) over 15 minutes, throughflow rate 1 ml/min. The quantification of the eluted peptide fragments is carried out by measuring the peak height of the cleavage product at 215 nm.

HIV-1/MN = assay: Inhibition of virus replication in MT-2 cells infected with HIV-1/MN (reverse transcriptase activity in supernatant); assay type: cell-based; details: 4 days' incubation
From the text: In a further test it can be shown that the title compound from Example 5 protects cells normally infected by HIV from such an infection or at least slows down such an infection. For this test, MT-2 cells infected with HIV-1/MN are used. MT-2 cells have been transformed with HTLV-1 (a virus causing leukaemia) and are a continuous producer thereof; they are therefore especially sensitive to the cytopathogenic effect of HIV. MT-2 cells can be obtained via the AIDS Research and Reference Reagent Program, Division of AIDS, NIAID, NIH from Dr. Douglas Richman (see J. Biol. Chem. 263, 5870-5875 (1988) and also Science 229, 563-566 (1985)). The MT-2 cells are cultured in RPMI 1640 medium (Gibco, Scotland; RPMI comprises an amino acid mixture without glutamine) supplemented with 10% heat-inactivated foetal calf serum, glutamine and standard antibiotics. […] The titre of the HIV-1/MN virus stock solution (determined by titration onto MT-2 cells) is 4.2×10^5 TClD50/ml (TClD50=Tissue Culture Infective Dose=dose that infects 50% of the MT-2 cells). […] Prior to the test, 0.1% (v/v) [alpha-^32 P]dTTP is added to aliquots of the solution in order to establish a radioactivity of 10 μCl/ml.
After mixing, the plate is incubated for 2 h at 37° C. […] The radioactivity on the filters is measured in a Matrix Packard 96-well counter (Packard, Zurich, Switzerland). […]

[1] = Plasma levels in mice after oral administration; assay type: in vivo, female BALB/c mice; details: 120 mg/kg
Procedure: In order to determine its pharmacokinetics, the title compound from Example 5 is dissolved in dimethyl sulfoxide (DMSO) in a concentration of 240 mg/ml. The resulting solution is diluted 1:20 (v/v) with 20% (w/v) aqueous hydroxypropyl-β-cyclodextrin solution in order to obtain a concentration of the test compound of 12 mg/ml. The resulting solution is treated briefly with ultrasound and administered orally to female BALB/c mice (Bomholtgarden, Copenhagen, Denmark) by artificial tube feeding at a dose of 120 mg/kg. At fixed times (for example 30, 60, 90, 120 min) after administration, mice are sacrificed and the […] stored in heparinised test tubes. The blood is centrifuged (12000×g, 5 min) and the plasma removed. […] The precipitate is pelleted by centrifugation (12000×g, 5 min), and the concentration of the test compound is determined by reversed phase high performance liquid chromatography (HPLC).
The HPLC analysis of the samples obtained in accordance with the method described above is carried out on a 125×4.6 mm Nucleosil® C18 column (reversed phase material supplied by Macherey & Nagel, Duren, Germany, based on silica gel derivatised with hydrocarbon radicals having 18 carbon atoms), using a 2 cm long preliminary column containing the same column material. […] The test compound is detected by UV absorption measurement at 255 nm. […]

COC(=O)N[C@H](C(=O)N[C@@H](Cc1ccccc1)[C@@H](O)CN(Cc1ccc(-c2ccccn2)cc1)NC(=O)[C@@H](NC(=O)OC)C(C)(C)C)C(C)(C)C [Example 5, 1-[4-(Pyridin-2-yl)-phenyl]-4(S)-hydroxy-5(S)-2,5-bis[N-(N-methoxycarbonyl-(L)-tert-leucyl)-amino]-6-phenyl-2-azahexane]
IC50 (HIV-1-protease): 26 nM | ED90 (concentration that reduces the RT activity by 90%; 90% inhibition of virus replication) (HIV-1/MN): 3 nM | plasma level ([1]; 30 min after administration): 21.83 µM | plasma level ([1]; 90 min after administration): 31.76 µM

COC(=O)N[C@H](C(=O)N[C@@H](Cc1ccccc1)[C@@H](O)CN(Cc1ccc(-c2nccs2)cc1)NC(=O)[C@@H](NC(=O)OC)C(C)(C)C)C(C)(C)C [1-[4-(thiazol-2-yl)-phenyl]-4(S)-hydroxy-5(S)-2,5-bis[N-(N-methoxycarbonyl-(L)-tert-leucyl)amino]-6-phenyl-2-azahexane]
IC50 (HIV-1-protease): 33 nM

COC(=O)N[C@H](C(=O)N[C@@H](Cc1ccccc1)[C@@H](O)CN(Cc1ccc(-c2nnn(C)n2)cc1)NC(=O)[C@@H](NC(=O)OC)C(C)(C)C)C(C)(C)C [1-[4-(2-methyl-2H-tetrazol-5-yl)-phenyl]-4(S)-hydroxy-5(S)-2,5-bis[N-(N-methoxycarbonyl-(L)-tert-leucyl)amino]-6-phenyl-2-axahexane]
IC50 (HIV-1-protease): 51 nM
